The subject of this assay is Acinetobacter baumannii ATCC 17961. The experiment in a line: Antimicrobial susceptibility testing: 90% growth inhibitory concentration (IC90) determination. It counts as cell-based. The note with it: read-out: ATCC 17961 IC90. An outline of the steps:
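Broth microdilution in Iso-Sensitest medium, twofold series (e.g. 50 to 0.097 μM final), ~5×10^5 CFU/ml inoculum, 35±2 °C. OD600 read every 20 min over 16 h. IC90 derived from growth inhibition during logarithmic phase.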

Where [1] appears, read: ATCC17961, Acinetobacter baumannii ATCC 17961, Iso-Sensitest broth.

Where a name gives a salt, the structure may show the parent alone. Read-outs that look alike come from different tables or passages of the source.

For orientation: IC90 means the point of the concentration-response curve where the effect stands at 90%.

On to `Cn1c(-c2cn(CC3CC3(F)F)nc2C(F)(F)F)cnc1C(=O)Nc1ccc(C(=O)N2CCN(C(=O)C3CCNCC3)CC2)c(Cl)c1` (stereo not shown) [Example 110, N-[3-chloro-4-[4-(piperidine-4-carbonyl)piperazine-1-carbonyl]phenyl]-5-[1-[(2,2-difluorocyclopropyl)methyl]-3-(trifluoromethyl)pyrazol-4-yl]-1-methylimidazole-2-carboxamide;hydrochloride], for which the IC90 under setting [1] is 260 nM.
Still for that read-out and setting: for `Cn1c(-c2cn(CC3CC(F)(F)C3)nc2C(F)(F)F)cnc1C(=O)Nc1ccc(C(=O)N2CCN(C(=O)C3CCNCC3)CC2)c(Cl)c1` [Example 111, N-[3-chloro-4-[4-(piperidine-4-carbonyl)piperazine-1-carbonyl]phenyl]-5-[1-[(3,3-difluorocyclobutyl)methyl]-3-(trifluoromethyl)pyrazol-4-yl]-1-methylimidazole-2-carboxamide;hydrochloride] the value was 344 nM; for `Cn1c(-c2cn(CC3CC3)nc2C(F)(F)F)cnc1C(=O)Nc1ccc(C(=O)N2CCN(C(=O)C3CCNCC3)CC2)c(Cl)c1` [Example 112, N-[3-chloro-4-[4-(piperidine-4-carbonyl)piperazine-1-carbonyl]phenyl]-5-[1-(cyclopropylmethyl)-3-(trifluoromethyl)pyrazol-4-yl]-1-methylimidazole-2-carboxamide;hydrochloride], 274 nM; for `Cn1c(-c2cn(CC3CCC3)nc2C(F)(F)F)cnc1C(=O)Nc1ccc(C(=O)N2CCN(C(=O)C3CCNCC3)CC2)c(Cl)c1` [Example 113, N-[3-chloro-4-[4-(piperidine-4-carbonyl)piperazine-1-carbonyl]phenyl]-5-[1-(cyclobutylmethyl)-3-(trifluoromethyl)pyrazol-4-yl]-1-methylimidazole-2-carboxamide;hydrochloride], 187 nM.
Take `CCn1cc(-c2cnc(C(=O)Nc3ccc(C(=O)N4CCN(C(=O)C5CCNCC5)CC4)c(Cl)c3)n2C)c(C(F)(F)F)n1` [Example 114, N-[3-chloro-4-[4-(piperidine-4-carbonyl)piperazine-1-carbonyl]phenyl]-5-[1-ethyl-3-(trifluoromethyl)pyrazol-4-yl]-1-methylimidazole-2-carboxamide;hydrochloride]: under setting [1], the IC90 came out at 339 nM.
Same read-out and setting: in the case of `Cn1cc(-c2cnc(C(=O)Nc3ccc(C(=O)N4CCN(C(=O)C5CCNCC5)CC4)c(Cl)c3)n2C)c(C(F)(F)F)n1` [Example 115, N-[3-chloro-4-[4-(piperidine-4-carbonyl)piperazine-1-carbonyl]phenyl]-1-methyl-5-[1-methyl-3-(trifluoromethyl)pyrazol-4-yl]imidazole-2-carboxamide;hydrochloride] it was 1250 nM; in that of `Cn1c(-c2cn(C(F)F)nc2C(F)(F)F)cnc1C(=O)Nc1ccc(C(=O)N2CCN(C(=O)C3CCNCC3)CC2)c(Cl)c1` [Example 116, N-[3-chloro-4-[4-(piperidine-4-carbonyl)piperazine-1-carbonyl]phenyl]-5-[1-(difluoromethyl)-3-(trifluoromethyl)pyrazol-4-yl]-1-methylimidazole-2-carboxamide;hydrochloride], 487 nM.
Take `CC(C#N)n1cc(-c2cnc(C(=O)Nc3ccc(C(=O)N4CCN(C(=O)C5CCNCC5)CC4)c(Cl)c3)n2C)c(C(F)(F)F)n1` (stereo not shown) [Example 117, N-[3-chloro-4-[4-(piperidine-4-carbonyl)piperazine-1-carbonyl]phenyl]-5-[1-(1-cyanoethyl)-3-(trifluoromethyl)pyrazol-4-yl]-1-methylimidazole-2-carboxamide;formic acid]: the concentration for an effect of 90% (IC90) under setting [1] was determined as 427 nM.
Same read-out and setting: for `Cc1cc(NC(=O)c2ncc(-c3cn(CC#N)nc3C(F)(F)F)n2C)cc(F)c1C(=O)N1CCN(C(=O)[C@H]2C[C@H](N)C2)CC1` [Example 118, N-[4-[4-(3-aminocyclobutanecarbonyl)piperazine-1-carbonyl]-3-fluoro-5-methylphenyl]-5-[1-(cyanomethyl)-3-(trifluoromethyl)pyrazol-4-yl]-1-methylimidazole-2-carboxamide] the value was 884 nM; for `Cc1cc(NC(=O)c2ncc(-c3cn(CC#N)nc3C(F)(F)F)n2C)cc(F)c1C(=O)N1CCN(C(=O)[C@H]2CC[C@@H](N)C2)CC1` [Example 119, N-[4-[4-[(1S,3R)-3-aminocyclopentanecarbonyl]piperazine-1-carbonyl]-3-fluoro-5-methylphenyl]-5-[1-(cyanomethyl)-3-(trifluoromethyl)pyrazol-4-yl]-1-methylimidazole-2-carboxamide], 769 nM.
For `Cc1cc(NC(=O)c2ncc(-c3cn(CC#N)nc3C(F)(F)F)n2C)cc(F)c1C(=O)N1CCN(C(=O)C2(O)CCCNC2)CC1` (stereo not shown) [Example 120, 5-[1-(cyanomethyl)-3-(trifluoromethyl)pyrazol-4-yl]-N-[3-fluoro-4-[4-(3-hydroxypiperidine-3-carbonyl)piperazine-1-carbonyl]-5-methylphenyl]-1-methylimidazole-2-carboxamide], the IC90 under setting [1] is 2250 nM.
Same read-out and setting: in the case of `Cc1cc(NC(=O)c2ncc(-c3cn(CC#N)nc3C(F)(F)F)n2C)cc(F)c1C(=O)N1CCN(C(=O)[C@H](C)N)CC1` [Example 121, N-[4-[4-[(2S)-2-aminopropanoyl]piperazine-1-carbonyl]-3-fluoro-5-methylphenyl]-5-[1-(cyanomethyl)-3-(trifluoromethyl)pyrazol-4-yl]-1-methylimidazole-2-carboxamide] it was 970 nM; in that of `Cc1cc(NC(=O)c2ncc(-c3cn(CC#N)nc3C(F)(F)F)n2C)cc(F)c1C(=O)N1CCN(C(=O)[C@H]2CCNC2)CC1` [Example 122, 5-[1-(cyanomethyl)-3-(trifluoromethyl)pyrazol-4-yl]-N-[3-fluoro-5-methyl-4-[4-[(3S)-pyrrolidine-3-carbonyl]piperazine-1-carbonyl]phenyl]-1-methylimidazole-2-carboxamide], 978 nM; in that of `Cc1nc(Cn2cc(-c3cnc(C(=O)Nc4ccc(C(=O)NC5CC(N)C5)c(Cl)c4)n3C)c(C(F)(F)F)n2)cs1` (stereo not shown) [Example 124, N-[4-[(3-aminocyclobutyl)carbamoyl]-3-chlorophenyl]-1-methyl-5-[1-[(2-methyl-1,3-thiazol-4-yl)methyl]-3-(trifluoromethyl)pyrazol-4-yl]imidazole-2-carboxamide;hydrochloride], 1800 nM.
Same read-out and setting: in the case of `Cn1c(-c2cn(C3CCC3)nc2C(F)(F)F)cnc1C(=O)Nc1ccc(C(=O)NC2CC(N)C2)c(Cl)c1` (stereo not shown) [Example 125, N-[4-[(3-aminocyclobutyl)carbamoyl]-3-chlorophenyl]-5-[1-cyclobutyl-3-(trifluoromethyl)pyrazol-4-yl]-1-methylimidazole-2-carboxamide;hydrochloride] it was 480 nM.
Take `C=CCn1cc(-c2cnc(C(=O)Nc3ccc(C(=O)NC4CC(N)C4)c(Cl)c3)n2C)c(C(F)(F)F)n1` (stereo not shown) [Example 126, N-[4-[(3-aminocyclobutyl)carbamoyl]-3-chlorophenyl]-1-methyl-5-[1-prop-2-enyl-3-(trifluoromethyl)pyrazol-4-yl]imidazole-2-carboxamide;2,2,2-trifluoroacetic acid]: the IC90 (Acinetobacter baumannii ATCC 17961, Iso-Sensitest broth) amounted to 293 nM.
In the case of `CCc1cc(NC(=O)c2ncc(-c3cn(CC#N)nc3C(F)(F)F)n2C)ccc1C(=O)N1CCN(C(=O)C2CCN(C)CC2)CC1` [Example 127, 5-[1-(cyanomethyl)-3-(trifluoromethyl)pyrazol-4-yl]-N-[3-ethyl-4-[4-(1-methylpiperidine-4-carbonyl)piperazine-1-carbonyl]phenyl]-1-methylimidazole-2-carboxamide;formic acid], under setting [1], the IC90 came to 681 nM.
As to `CCc1cc(NC(=O)c2ncc(-c3cn(CC#N)nc3C(F)(F)F)n2C)ccc1C(=O)N1CCN(C(=O)C2CCNCC2)CC1` [Example 128, 5-[1-(cyanomethyl)-3-(trifluoromethyl)pyrazol-4-yl]-N-[3-ethyl-4-[4-(piperidine-4-carbonyl)piperazine-1-carbonyl]phenyl]-1-methylimidazole-2-carboxamide;formic acid], the IC90 under setting [1] was determined as 1040 nM.
For the compound `CCc1cc(NC(=O)c2ncc(-c3cn(CC#N)nc3C(F)(F)F)n2C)ccc1C(=O)N1CCN(C(=O)C2(O)CCNCC2)CC1` [Example 129, 5-[1-(cyanomethyl)-3-(trifluoromethyl)pyrazol-4-yl]-N-[3-ethyl-4-[4-(4-hydroxypiperidine-4-carbonyl)piperazine-1-carbonyl]phenyl]-1-methylimidazole-2-carboxamide;formic acid], the concentration for an effect of 90% (IC90) under setting [1] came out at 949 nM.
The same measure, in the same setting: for `CCc1cc(NC(=O)c2ncc(-c3cn(CC#N)nc3C(F)(F)F)n2C)ccc1C(=O)N1CCN(C(=O)[C@@H]2CCNC2)CC1` [Example 130, 5-[1-(cyanomethyl)-3-(trifluoromethyl)pyrazol-4-yl] N-[3-ethyl-4-[4-[(3R)-pyrrolidine-3-carbonyl]piperazine-1-carbonyl]phenyl]-1-methylimidazole-2-carboxamide;formic acid] the value was 947 nM; for `CCc1cc(NC(=O)c2ncc(-c3cn(CC#N)nc3C(F)(F)F)n2C)ccc1C(=O)N1CCN(C(=O)C2CNC2)CC1` [Example 131, N-[4-[4-(azetidine-3-carbonyl)piperazine-1-carbonyl]-3-ethylphenyl]-5-[1-(cyanomethyl)-3-(trifluoromethyl)pyrazol-4-yl]-1-methylimidazole-2-carboxamide;formic acid], 1700 nM.
Still for that read-out and setting: for `CCc1cc(NC(=O)c2ncc(-c3cn(CC#N)nc3C(F)(F)F)n2C)ccc1C(=O)N1CCN(C(=O)NCC2(O)CNC2)CC1` [Example 132, 4-[4-[[5-[1-(cyanomethyl)-3-(trifluoromethyl)pyrazol-4-yl]-1-methylimidazole-2-carbonyl]amino]-2-ethylbenzoyl]-N-[(3-hydroxyazetidin-3-yl)methyl]piperazine-1-carboxamide;formic acid] the value was 1170 nM.

Source of the values: patent US11390604B2 (Hoffmann-La Roche Inc., priority 2019, dated 2022).
